Where “and” joins values, the source holds several entries; their conditions need not be identical. Identical values can stand only once.
Tests used:
Assay type in all cases: biochemical
EGFR protein = target: T1, EGFR protein (Homo sapiens, UniProt P00533); experiment: ELISA assay measuring the kinase activity of the EGF receptor (captured from A431 cell lysate)
T1 construct: Add 120 μL TBS to ELISA plate containing captured EGFR; endogenous in cells; host or cells: A431 cells (lysate, captured with SUMO1 anti-EGFR antibody)
Description: The following protocol describes the reagents and procedures used to analyze protein tyrosine kinase activity on the EGFR protein.
2. SUMO1 monoclonal anti-EGFR antibody
All of the following steps are conducted at room temperature unless it is specifically indicated. All ELISA plate washing is by rinsing 4× with TBST.
1. Coat Corning 96 well ELISA plates with 0.5 μ/well of SUMO1 in a volume of 100 μL PBS. Store overnight at 4° C.
2. Remove unbound SUMO1 by inverting plate to remove liquid. Wash plates with distilled water. Pat plate on a paper towel to remove excess liquid and bubbles
3. Add 150 μL of Blocking Buffer to each well. Incubate while shaking on a microliter plate shaker at room temperature for 30 min.
4. Wash 3× with deionized water, then once with TBST. Pat plate on a paper towel to remove excess liquid and bubbles.
5. Dilute lysate in PBS (7 μg of lysate/100 μL of PBS).
6. Add 100 μL of diluted lysate to each well. Shake at room temperature for 60 min.
7. Wash as described in step 4.
8. Add 120 μL TBS to ELISA plate containing captured EGFR.
9. Dilute drugs/extracts 1:10 (unless specified otherwise) in TBS in 96-well polypropylene plates.
10. Add 13.5 μL diluted drugs/extracts to ELISA plate.
11. Incubate for 30 minutes while shaking at room temperature.
12. […] Incubate while shaking on a micro-liter plate shaker at room temperature for 5 min.
13. Stop Kinase reaction with the addition of 16.5 μL of 200 mM EDTA pH 8.0 to all wells.
14. Wash 4× with deionized water and twice with TBST.
15. Add 100 μL per well of anti-phosphotyrosine (1:3000 dilution in TBST). Incubate while shaking on a micro-liter plate shaker 30-45 minutes at room temperature while shaking.
16. Wash as described in step 4.
17. Add 100 μL per well of biosource Goat anti-rabbit IgG peroxidase conjugate (1:2000 dilution in TBST). Incubate 30 min. at room temperature while shaking.
18. Wash as described in step 4.
19. Add 100 μL of ABTS/H2O2 solution to each well.
20. Incubate 5 to 15 minutes while shaking. Remove any bubbles.
21. If necessary stop reaction with the addition of 10 μL of 0.2 M HCl/well.
22. Read assay on Dynatech MR7000 ELISA Plate Reader.
(§1) The IC50 values were measured for several of the compounds of the invention.

src protein kinase = target: T2, src protein kinase (Gallus gallus, UniProt P00523); experiment: Assay measuring SRC protein kinase activity (phosphorylation of a biotinylated peptide); conditions: src from transformed yeast lysate, 5 μM ATP; for IC50: cells without %; for inhibition at 100 µM: compound at 100 μM
T2 construct: made in house; host or cells: Schizosaccharomyces pombe strain SP200, pRSP expression plasmids
Description: This assay is used to determine src protein kinase activity measuring phosphorylation of a biotinylated peptide as the readout.
a. Yeast transformed with src.
b. Cell lysates: Yeast cells expressing src are pelleted, washed once with water, re-pelleted and stored at −80° C. until use.
(§2) c. N-terminus biotinylated […] is prepared by standard procedures well known to those skilled in the art.
(§3) h. […] S. Pombe strain SP200 (h-s leul.32 ura4 ade21O) was grown as described and transformations were pRSP expression plasmids were done by the lithium acetate method (Superti-Furga, supra). Cells were grown in the presence of 1 μM thiamine to repress expression from the nmtl promoter or in the absence of thiamine to induce expression.
a. Preparation of src coated ELISA plate.
1. Coat ELISA plate with 0.5 μg/well anti-src mab in 100 μL of pH 9.6 sodium carbonate buffer at 4° C. overnight.
(§4) 2. Wash wells once with PBS.
(§5) 3. Block plate with 0.15 mL 5% milk in PBS for 30 min. at room temperature.
(§6) 4. Wash plate 5× with PBS.
5. Add 10 μg/well of src transformed yeast lysates diluted in Lysis Buffer (0.1 mL total volume per well). (Amount of lysate may vary between hatches.) Shake plate for 20 minutes at room temperature.
(§7) b. Preparation of phosphotyrosine antibody-coated ELISA plate.
(§8) 1. 4G10 plate: coat 0.5 μg/well 4G10 in 100 μL PBS overnight at 4° C. and block with 150 μL of 5% milk in PBS for 30 minutes at room temperature.
(§9) c. Kinase assay procedure.
(§10) 1. Remove unbound proteins from steps 1-7, above, and wash plates 5× with PBS.
2. Add 0.08 mL Kinase Reaction Mixture per well (containing 10 μL of 10×Kinase Buffer and 10 μM (final concentration) biotin-[…] per well diluted in water.
(§11) 3. Add 10 μL of compound diluted in water containing 10% DMSO and pre-incubate for 15 minutes at room temperature.
(§12) 4. Start kinase reaction by adding 10 μL/well of 0.05 mM ATP in water (5 μM ATP final).
(§13) 5. Shake ELISA plate for 15 min. at room temperature.
(§14) 6. Stop kinase reaction by adding 10 μL of 0.5 M EDTA per well.
(§15) 7. Transfer 90 μL supernatant to a blocked 4G10 coated ELISA plate from section B, above.
(§16) 8. Incubate for 30 min. while shaking at room temperature.
(§17) 9. Wash plate 5× with TBST.
(§18) 10. Incubate with Vectastain ELITE ABC reagent (100 μL/well) for 30 min. at room temperature.
(§19) 11. Wash the wells 5× with TBST.
(§20) 12. Develop with Turbo TMB.
as §1

pyk-2 protein kinase = target: T3, pyk-2 protein kinase (Homo sapiens, UniProt Q14289); experiment: Assay measuring PYK-2 protein kinase activity (phosphorylation of a biotinylated peptide); conditions: pyk-2 from transformed yeast lysate, 5 μM ATP; for inhibition at 100 µM: compound at 100 μM; for IC50: cells without %
T3 construct: made in house; host or cells: Schizosaccharomyces pombe strain SP200, pRSP expression plasmids
Description: This assay is used to determine pyk-2 protein kinase activity measuring phosphorylation of a biotinylated peptide as the readout.
a. Yeast transformed with pyk-2.
b. Cell lysates: Yeast cells expressing pyk-2 are pelleted, washed once with water, re-pelleted and stored at −80° C. until use.
as §2, §3
a. Preparation of pyk-2 coated ELISA plate.
1. Coat ELISA plate with 0.5 μg/well anti-pyk-2 mab in 100 μL of pH 9.6 sodium carbonate buffer at 4° C. overnight.
as §4, §5, §6
5. Add 10 μg/well of pyk-2 transformed yeast lysates diluted in Lysis Buffer (0.1 mL total volume per well). (Amount of lysate may vary between hatches.) Shake plate for 20 minutes at room temperature.
as §7, §8, §9, §10
2. Add 0.08 mL Kinase Reaction Mixture per well (containing […] of 10×Kinase Buffer and 10 pM (final concentration) biotin-[…] per well diluted in water.
as §11, §12, §13, §14, §15, §16, §17, §18, §19, §20, §1

T1 sequence (P00533 25-1210): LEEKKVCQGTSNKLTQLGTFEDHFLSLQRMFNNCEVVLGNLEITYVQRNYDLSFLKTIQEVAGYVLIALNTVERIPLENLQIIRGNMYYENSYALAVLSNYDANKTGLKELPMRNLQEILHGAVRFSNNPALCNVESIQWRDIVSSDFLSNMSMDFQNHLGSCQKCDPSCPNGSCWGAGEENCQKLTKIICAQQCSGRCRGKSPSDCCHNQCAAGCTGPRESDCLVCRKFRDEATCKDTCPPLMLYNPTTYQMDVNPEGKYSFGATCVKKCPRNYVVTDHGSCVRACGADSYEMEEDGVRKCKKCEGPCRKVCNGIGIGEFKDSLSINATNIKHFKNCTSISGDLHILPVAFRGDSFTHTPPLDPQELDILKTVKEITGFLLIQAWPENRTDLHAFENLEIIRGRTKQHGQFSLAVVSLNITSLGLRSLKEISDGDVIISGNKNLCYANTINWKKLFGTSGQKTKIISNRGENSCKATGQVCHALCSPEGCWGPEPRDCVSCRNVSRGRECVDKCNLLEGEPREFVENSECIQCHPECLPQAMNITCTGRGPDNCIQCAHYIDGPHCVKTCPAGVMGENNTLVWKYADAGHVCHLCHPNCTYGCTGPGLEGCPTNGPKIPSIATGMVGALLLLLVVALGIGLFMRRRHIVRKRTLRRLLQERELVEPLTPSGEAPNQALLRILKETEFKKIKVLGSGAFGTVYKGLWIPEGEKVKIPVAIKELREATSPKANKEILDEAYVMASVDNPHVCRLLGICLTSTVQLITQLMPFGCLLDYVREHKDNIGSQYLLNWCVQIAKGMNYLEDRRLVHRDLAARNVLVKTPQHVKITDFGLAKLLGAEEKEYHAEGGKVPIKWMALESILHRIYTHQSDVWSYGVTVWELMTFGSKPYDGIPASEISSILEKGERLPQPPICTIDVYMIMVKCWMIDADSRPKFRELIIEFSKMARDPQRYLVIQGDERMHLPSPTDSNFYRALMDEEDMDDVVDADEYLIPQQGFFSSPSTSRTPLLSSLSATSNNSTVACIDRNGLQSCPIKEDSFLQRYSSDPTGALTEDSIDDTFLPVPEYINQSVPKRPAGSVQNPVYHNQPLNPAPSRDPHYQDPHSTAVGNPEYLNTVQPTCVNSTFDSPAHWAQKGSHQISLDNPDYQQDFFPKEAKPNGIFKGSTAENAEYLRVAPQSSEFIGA
T3 sequence (Q14289 whole entry): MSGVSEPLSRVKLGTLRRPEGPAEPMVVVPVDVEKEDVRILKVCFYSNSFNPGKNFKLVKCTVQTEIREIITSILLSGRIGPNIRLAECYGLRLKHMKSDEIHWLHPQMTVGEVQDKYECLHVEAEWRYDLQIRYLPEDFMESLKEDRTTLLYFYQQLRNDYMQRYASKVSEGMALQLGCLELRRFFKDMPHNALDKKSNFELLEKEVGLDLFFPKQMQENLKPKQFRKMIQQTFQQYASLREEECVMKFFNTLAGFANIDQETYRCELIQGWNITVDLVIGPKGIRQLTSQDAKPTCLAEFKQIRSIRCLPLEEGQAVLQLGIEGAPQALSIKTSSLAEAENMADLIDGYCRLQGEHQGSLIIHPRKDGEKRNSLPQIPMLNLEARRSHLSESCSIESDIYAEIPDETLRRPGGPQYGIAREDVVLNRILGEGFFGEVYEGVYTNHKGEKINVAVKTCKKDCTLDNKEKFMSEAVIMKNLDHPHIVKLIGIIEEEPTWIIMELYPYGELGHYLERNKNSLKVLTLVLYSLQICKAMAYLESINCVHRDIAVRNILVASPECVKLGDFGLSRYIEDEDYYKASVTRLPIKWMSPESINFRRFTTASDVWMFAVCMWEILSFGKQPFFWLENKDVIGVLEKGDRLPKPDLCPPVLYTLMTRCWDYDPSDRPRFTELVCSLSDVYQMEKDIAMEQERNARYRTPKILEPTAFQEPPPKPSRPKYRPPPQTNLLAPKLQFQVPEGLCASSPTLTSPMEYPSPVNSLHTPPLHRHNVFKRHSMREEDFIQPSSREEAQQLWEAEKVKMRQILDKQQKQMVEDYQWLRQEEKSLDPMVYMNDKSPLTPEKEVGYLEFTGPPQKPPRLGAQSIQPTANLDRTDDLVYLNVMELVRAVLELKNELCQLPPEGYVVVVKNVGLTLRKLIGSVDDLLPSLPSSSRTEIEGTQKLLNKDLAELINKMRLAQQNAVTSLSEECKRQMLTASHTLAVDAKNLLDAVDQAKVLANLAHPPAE

SMILES | IC50 (EGFR protein) | IC50 (src protein kinase) [µM] | inhibition at 100 µM (pyk-2 protein kinase) [%] | inhibition at 100 µM (src protein kinase) [%] | IC50 (pyk-2 protein kinase) [µM]
CC(=O)c1ccc2c(c1)C(=Cc1[nH]c3ccccc3c1C)C(=O)N2 [IN-006, 5-Acetyl-3-(3-methyl-1H-indol-2-ylmethylene)-1,3-dihydro-indol-2-one] | > 100 µM and 30.8 µM | > 100 | 27 | – | –
CC(=O)c1ccc2c(c1)C(=Cc1cc3ccccc3[nH]1)C(=O)N2 [IN-007, 5-Acetyl-3-(1H-indol-2-ylmethylene)-1,3-dihydro-indol-2-one] | > 100 µM | – | 17.9 | 12.4 | –
Cc1cccc2c1/C(=C/c1[nH]c3ccccc3c1C)C(=O)N2 [IN-019, 4-Methyl-3-(3-methyl-1H-indol-2-ylmethylene)-1,3-dihydro-indol-2-one] | > 100 µM | – | -36 | -6.5 | –
NS(=O)(=O)c1ccc2c(c1)/C(=C/c1cc3ccccc3[nH]1)C(=O)N2 [IN-008, 3-(1H-Indol-2-ylmethylene)-2-oxo-2,3-dihydro-1H-indole-5-sulfonic acid amide] | > 100 µM | – | – | -11 | 9.6
O=C1Nc2ccc(C(=O)O)cc2/C1=C/c1cc2ccccc2[nH]1 [IN-010, 3-(1H-Indol-2-ylmethylene)-2-oxo-2,3-dihydro-1H-indole-5-carboxylic acid] | > 100 µM | – | – | 36.4 | 3.4
Cc1ccc2c(c1)/C(=C/c1[nH]c3ccccc3c1C)C(=O)N2 [IN-001, 5-Methyl-3-(3-methyl-1H-indol-2-ylmethylene)-1,3-dihydro-indol-2-one] | > 100 µM | – | -16 | -62 | –
Cc1c(/C=C2\C(=O)Nc3ccccc32)[nH]c2ccccc12 [IN-016, 3-(3-Methyl-1H-indol-2-ylmethylene)-1,3-dihydro-indol-2-one] | > 100 µM | – | -12.5 | 20.2 | –
Nc1ccc2c(c1)/C(=C/c1cc3ccccc3[nH]1)C(=O)N2 [IN-009, 5-Amino-3-(1H-indol-2-ylmethylene)-1,3-dihydro-indol-2-one] | > 100 µM | 9 | – | – | 0.68
Cc1c(/C=C2\C(=O)Nc3ccc(S(N)(=O)=O)cc32)[nH]c2ccccc12 [IN-002, 3-(3-Methyl-1H-indol-2-ylmethylene)-2-oxo-2,3-dihydro-1H-indole-5-sulfonic acid amide] | > 100 µM | – | 46.7 | -3.5 | –
O=C1Nc2cc(Cl)ccc2/C1=C/c1cc2ccccc2[nH]1 [IN-011, 6-Chloro-3-(1H-indol-2-ylmethylene)-1,3-dihydro-indol-2-one] | > 100 µM | – | 7.4 | -38.5 | –
Cc1c(/C=C2\C(=O)Nc3ccc(Cl)cc32)[nH]c2ccccc12 [IN-017, 5-Chloro-3-(3-methyl-1H-indol-2-ylmethylene)-1,3-dihydro-indol-2-one] | > 100 µM | – | -12 | 21.4 | –
Cc1c(/C=C2\C(=O)Nc3ccc(C(=O)O)cc32)[nH]c2ccccc12 [IN-005, 3-(3-Methyl-1H-indol-2-ylmethylene)-2-oxo-2,3-dihydro-1H-indole-5-carboxylic acid] | 8.2 µM | – | – | – | 0.22
Cc1c(/C=C2\C(=O)Nc3ccc(Br)cc32)[nH]c2ccccc12 [IN-018, 5-Bromo-3-(3-methyl-1H-indol-2-ylmethylene)-1,3-dihydro-indol-2-one] | 17.8 µM and > 100 µM | – | 62 | 19.5 | –
O=C1Nc2ccccc2/C1=C/c1cc2ccccc2[nH]1 [IN-012, 3-(1H-Indol-2-ylmethylene)-1,3-dihydro-indol-2-one] | > 100 µM | – | 5.1 | -12 | –
O=C1Nc2ccc(Cl)cc2/C1=C/c1cc2ccccc2[nH]1 [IN-013, 5-chloro-3-(1H-indol-2-ylmethylene)-1,3-dihydro-indol-2-one] | > 100 µM | – | -12 | -0.6 | –
